Calls of active or inactive are those of the source. The rule behind the calls is not given here.
How the values were obtained:
Escherichia coli [1] = assay: Antibacterial activity against Escherichia coli UTI89 assessed as inhibition of biofilm formation at 200 uM after 24 hrs; type: functional; conditions: for inhibition at 200 µM: UTI89, 24 h
Escherichia coli [2] = assay: Antibacterial activity against Escherichia coli UTI89 assessed as inhibition of biofilm formation after 24 hrs; type: functional, organism-based; conditions: UTI89, 24 h
HeLa = assay: Cytotoxicity against human HeLa cells after 24 hrs by calcein AM based spectrophotometric analysis; type: cell-based
Escherichia coli [3] = assay: Antibacterial activity against Escherichia coli UTI89 assessed as number of wells with agglutination by hemagglutinination assay in presence of 500 uM pilicide; type: functional

Row | SMILES | inhibition at 200 µM (Escherichia coli [1]) [%] | EC50 (Escherichia coli [2]) [µM] | Activity (HeLa) | Activity (Escherichia coli [3]) | inhibition (Escherichia coli [1])
1 | O=C(O)[C@@H]1CSc2c(-c3cccc(C(F)(F)F)c3)c(CNS(=O)(=O)c3ccccc3)cc(=O)n21 | 48 | – | – | – | –
2 | O=C(O)[C@@H]1CSc2c(-c3cccc(C(F)(F)F)c3)c(Cc3ccc4[nH]ccc4c3)cc(=O)n21 | 97 | 30 | Non-toxic | 5 | –
3 | O=C(O)[C@@H]1CSc2c(C3CC3)c(CNS(=O)(=O)c3ccccc3)cc(=O)n21 | – | – | – | – | inactive
4 | COc1ccc2cc(Cc3cc(=O)n4c(c3-c3cccc(C(F)(F)F)c3)SC[C@H]4C(=O)O)ccc2c1 | 93 | 9 | Non-toxic | 5.5 | –
5 | O=C(O)[C@@H]1CSc2c(C3CC3)c(Cc3ccc4[nH]ccc4c3)cc(=O)n21 | 37 | – | – | – | –
6 | O=C(O)[C@@H]1CSc2c(C3CC3)c(Cc3cccc4ccccc34)cc(=O)n21 | 54 | 189 | Non-toxic | 7 | –
7 | O=C(O)[C@@H]1CSc2c(-c3cccc(C(F)(F)F)c3)c(COc3cccc4ccccc34)cc(=O)n21 | 72 | 37 | Non-toxic | 5 | –
8 | O=C(NCc1cc(=O)n2c(c1-c1cccc(C(F)(F)F)c1)SC[C@H]2C(=O)O)c1cccc2ccccc12 | 65 | 130 | – | – | –
9 | O=C(O)[C@@H]1CSc2c(C3CC3)c(CNS(=O)(=O)c3cccc4ccccc34)cc(=O)n21 | – | – | – | – | inactive
10 | O=C(NCc1cc(=O)n2c(c1C1CC1)SC[C@H]2C(=O)O)c1ccccc1 | – | – | – | – | inactive
11 | O=C(NCc1cc(=O)n2c(c1-c1cccc(C(F)(F)F)c1)SC[C@H]2C(=O)O)c1ccccc1 | – | – | – | – | inactive
12 | O=C(O)[C@@H]1CSc2c(C3CC3)c(COc3cccc4ccccc34)cc(=O)n21 | 96 | 32 | Non-toxic | 5.5 | –
13 | O=C(O)[C@@H]1CSc2c(C3CC3)c(CN3CCCCC3)cc(=O)n21 | – | – | – | – | inactive
14 | O=C(O)[C@@H]1CSc2c(C3CC3)c(Cc3cccc(OCc4ccc(F)cc4)c3)cc(=O)n21 | 76 | 43 | Non-toxic | – | –
15 | O=C(O)[C@@H]1CSc2c(-c3cccc(C(F)(F)F)c3)c(CNS(=O)(=O)c3cccc4ccccc34)cc(=O)n21 | 91 | 38 | Non-toxic | – | –
16 | O=C(O)[C@@H]1CSc2c(-c3cccc(C(F)(F)F)c3)c(CN3CCc4ccccc4C3)cc(=O)n21 | 84 | 130 | – | – | –
17 | O=C(O)[C@@H]1CSc2c(C3CC3)c(CN3CCOCC3)cc(=O)n21 | – | – | – | – | inactive
18 | O=C(O)[C@@H]1CSc2c(-c3cccc(C(F)(F)F)c3)c(Cc3cccc(OCc4ccc(F)cc4)c3)cc(=O)n21 | 75 | 3 | Non-toxic | – | –
19 | O=C(O)[C@@H]1CSc2c(-c3cccc(C(F)(F)F)c3)c(CN3CCCCC3)cc(=O)n21 | 30 | – | – | – | –
20 | COc1ccc2cc(Cc3cc(=O)n4c(c3C3CC3)SC[C@H]4C(=O)O)ccc2c1 | – | – | – | – | inactive
21 | O=C(O)[C@@H]1CSc2c(-c3cccc(C(F)(F)F)c3)c(CN3CCOCC3)cc(=O)n21 | – | – | – | – | inactive
22 | O=C(O)[C@@H]1CSc2c(C3CC3)c(CN3CCc4ccccc4C3)cc(=O)n21 | – | – | – | – | inactive
23 | O=C(O)[C@@H]1CSc2c(C3CC3)c(COc3ccccc3)cc(=O)n21 | 43 | – | – | – | –
24 | O=C(O)[C@@H]1CSc2c(-c3cccc(C(F)(F)F)c3)c(Cc3cccc4ccccc34)cc(=O)n21 | 92 | 17 | Non-toxic | 5 | –
25 | O=C(NCc1cc(=O)n2c(c1C1CC1)SC[C@H]2C(=O)O)c1cccc2ccccc12 | – | – | – | – | inactive
26 | O=C(O)[C@@H]1CSc2c(-c3cccc(C(F)(F)F)c3)c(COc3ccccc3)cc(=O)n21 | 80 | 21 | Non-toxic | – | –

Reference: ChEMBL document CHEMBL1759904, “Synthesis and application of a bromomethyl substituted scaffold to be used for efficient optimization of anti-virulence activity” (Eur J Med Chem, 2011)
